Laboratory results: PubChem BioAssay (NCI)
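All cell lines were grown in 96-well plates and treated with compound for 48 hours. The concentration for full growth arrest is given as TGI.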

Columns and labels:
Test in all cases: DTP human tumour cell line panel, 48 h
LOX IMVI melanoma = test system: LOX IMVI melanoma
UACC-62 melanoma = test system: UACC-62 melanoma
786-0 renal = test system: 786-0 renal
DMS 114 small cell lung = test system: DMS 114 small cell lung
SNB-78 CNS = test system: SNB-78 CNS
HOP-18 NSCLC = test system: HOP-18 NSCLC
XF 498 CNS = test system: XF 498 CNS
IGROV1 ovarian = test system: IGROV1 ovarian
K-562 leukemia = test system: K-562 leukemia
A549 NSCLC = test system: A549 NSCLC
SNB-75 CNS = test system: SNB-75 CNS
HCT-15 colon = test system: HCT-15 colon
NCI-H522 lung = test system: NCI-H522 lung
OVCAR-8 ovarian = test system: OVCAR-8 ovarian
SN12C renal = test system: SN12C renal
SW-620 colon = test system: SW-620 colon
SF-295 CNS = test system: SF-295 CNS
DLD-1 colon = test system: DLD-1 colon
LXFL 529 NSCLC = test system: LXFL 529 NSCLC
NCI-H460 lung = test system: NCI-H460 lung
M14 melanoma = test system: M14 melanoma
U251 CNS = test system: U251 CNS
HCT-116 colon = test system: HCT-116 colon
SK-OV-3 ovarian = test system: SK-OV-3 ovarian
SK-MEL-2 melanoma = test system: SK-MEL-2 melanoma
KM12 colon = test system: KM12 colon
RXF 393 renal = test system: RXF 393 renal
SK-MEL-5 melanoma = test system: SK-MEL-5 melanoma
OVCAR-4 ovarian = test system: OVCAR-4 ovarian
TK-10 renal = test system: TK-10 renal
MOLT-4 leukemia = test system: MOLT-4 leukemia
ACHN renal = test system: ACHN renal
SF-268 CNS = test system: SF-268 CNS
DMS 273 small cell lung = test system: DMS 273 small cell lung
SK-MEL-28 melanoma = test system: SK-MEL-28 melanoma
SNB-19 CNS = test system: SNB-19 CNS
CCRF-CEM leukemia = test system: CCRF-CEM leukemia
UACC-257 melanoma = test system: UACC-257 melanoma
OVCAR-3 ovarian = test system: OVCAR-3 ovarian
MALME-3M melanoma = test system: MALME-3M melanoma
NCI-H226 lung = test system: NCI-H226 lung
NCI-H23 lung = test system: NCI-H23 lung
HT29 colon = test system: HT29 colon
SF-539 CNS = test system: SF-539 CNS
HL-60(TB) leukemia = test system: HL-60(TB) leukemia
M19-MEL melanoma = test system: M19-MEL melanoma
RPMI-8226 leukemia = test system: RPMI-8226 leukemia
A498 renal = test system: A498 renal
CAKI-1 renal = test system: CAKI-1 renal
HOP-92 NSCLC = test system: HOP-92 NSCLC
KM20L2 colon = test system: KM20L2 colon
EKVX NSCLC = test system: EKVX NSCLC
HOP-62 NSCLC = test system: HOP-62 NSCLC
UO-31 renal = test system: UO-31 renal
COLO 205 colon = test system: COLO 205 colon
OVCAR-5 ovarian = test system: OVCAR-5 ovarian
HCC-2998 colon = test system: HCC-2998 colon

Measured: TGI

CN(C)CCCNC(=O)N/N=C/c1cccc([N+](=O)[O-])c1
not listed: HL-60(TB) leukemia | M19-MEL melanoma | RPMI-8226 leukemia | A498 renal | CAKI-1 renal | HOP-92 NSCLC | KM20L2 colon | EKVX NSCLC | HOP-62 NSCLC | UO-31 renal | COLO 205 colon | OVCAR-5 ovarian | HCC-2998 colon
> 100 µM: all other assays above

CCOC(=O)C1=C(NC)OC/C1=N\NC(=O)c1ccccc1O
89.6 µM: DMS 114 small cell lung
70.4 µM: LOX IMVI melanoma
80.5 µM: UACC-62 melanoma
71.4 µM: HL-60(TB) leukemia
17.3 µM: UACC-257 melanoma
60.6 µM: NCI-H226 lung | SF-539 CNS
58.3 µM: HCT-116 colon
48.2 µM: SK-MEL-2 melanoma
98.5 µM: OVCAR-3 ovarian
90.5 µM: NCI-H522 lung
26.1 µM: UO-31 renal
83.5 µM: OVCAR-4 ovarian
54.9 µM: NCI-H23 lung
not listed: HCT-15 colon | ACHN renal | HT29 colon
> 100 µM: all other assays above
